# Key:
# [1] = target: PI3KC2; assay: Kinase panel (KinaseProfiler), second PI3KC2 line; assay type: biochemical, human; conditions: PI3KC2 (second of two lines), 10μM
# Description: (§1) Experiments were performed by Eurofins Pharma Discovery Services. The KinaseProfiler™ assay protocol guide can be downloaded from their website: www.eurofins.com/discoveryservices. The guide contains information on the buffer conditions, substrate and reference inhibitor blank used for each kinase.
# (§2) Supplementary Table 3. Assessment of potential interaction of Abd-7 with a human kinase
# (§3) Kinase % kinase activity in
# (§4) A panel of 14 Kinases (relevant to the RAS pathway) has been screened against Abd-7
# (§5) (10μM) and the kinase activity was measured. […] of activity was observe for all
# (§6) function of the selected and RAS relevant kinase proteins.
# [2] = target: T1, MEK2 (Homo sapiens, UniProt P36507); assay: Kinase panel (KinaseProfiler); assay type: biochemical; conditions: MEK2, 10μM
# T1 construct: purchased Eurofins Pharma Discovery Services (KinaseProfiler)
# Description: as §1, §2, §3, §4, §5, §6
# [3] = target: T2, BRAF (Homo sapiens, UniProt P15056); assay: Kinase panel (KinaseProfiler); assay type: biochemical; conditions: 10μM
# T2 construct: purchased Eurofins Pharma Discovery Services (KinaseProfiler)
# Description: as §1, §2, §3, §4, §5, §6
# [4] = target: T3, CRAF (Homo sapiens, UniProt P04049); assay: Kinase panel (KinaseProfiler); assay type: biochemical; conditions: 10μM
# T3 construct: purchased Eurofins Pharma Discovery Services (KinaseProfiler)
# Description: as §1, §2, §3, §4, §5, §6
# [5] = target: T4, MAPK2 (Homo sapiens, UniProt P28482); assay: Kinase panel (KinaseProfiler); assay type: biochemical; conditions: MAPK2, 10μM
# T4 construct: purchased Eurofins Pharma Discovery Services (KinaseProfiler)
# Description: as §1, §2, §3, §4, §5, §6
# [6] = target: T5, MAPK1 (Homo sapiens, UniProt P27361); assay: Kinase panel (KinaseProfiler); assay type: biochemical; conditions: MAPK1, 10μM
# T5 construct: purchased Eurofins Pharma Discovery Services (KinaseProfiler)
# Description: as §1, §2, §3, §4, §5, §6
# [7] = target: T6, PKBβ (Homo sapiens, UniProt P31751); assay: Kinase panel (KinaseProfiler); assay type: biochemical; conditions: 10μM
# T6 construct: purchased Eurofins Pharma Discovery Services (KinaseProfiler)
# Description: as §1, §2, §3, §4, §5, §6
# [8] = target: T7, mTOR (Homo sapiens, UniProt P42345); assay: Kinase panel (KinaseProfiler); assay type: biochemical; conditions: 10μM
# T7 construct: purchased Eurofins Pharma Discovery Services (KinaseProfiler)
# Description: as §1, §2, §3, §4, §5, §6
# [9] = target: T8, PKBα (Homo sapiens, UniProt P31749); assay: Kinase panel (KinaseProfiler); assay type: biochemical; conditions: 10μM
# T8 construct: purchased Eurofins Pharma Discovery Services (KinaseProfiler)
# Description: as §1, §2, §3, §4, §5, §6
# [10] = target: T9, PDK1 (Homo sapiens, UniProt O15530); assay: Kinase panel (KinaseProfiler); assay type: biochemical; conditions: PDK1, 10μM
# T9 construct: purchased Eurofins Pharma Discovery Services (KinaseProfiler)
# Description: as §1, §2, §3, §4, §5, §6
# [11] = target: T10, KRAS^G12V-GppNHp (Homo sapiens, UniProt P01116, G12V); assay: SPR binding to KRAS G12V-GppNHp; conditions: 100 μM, run in triplicate
# T10 construct: made in house; host or cells: E. coli (pGEX-2T; strain named only for the HRAS plasmids)
# Description: A BIAcore T100 (GE Healthcare) was used to screen the fragment library for RAS binders. A polyclonal goat anti-GST antibody (GE Healthcare) was immobilized on a CM5 sensor chip (GE Healthcare) by the amine coupling method. To immobilize the antibody on CM5 chip, the chip was first activated by injecting 100 µl mixture of 0.2 M EDC (N-ethyl-N-(dimethylaminopropyl) carbodiimide hydrochloride) and 0.05 M NHS (N-hydroxysuccinimide) at 10 µl/min flow rate. Furthermore, 100 µg/ml anti-GST antibody in 10 mM sodium acetate, pH 5.0 was injected at 5 µl/min for 900 s and immobilized until 20,000 ~ 25,000 RU. After immobilization the chip was immediately inactivated by injecting 1 M ethanolamine, pH 8.5 at 10 µl/min for 600 s. The chip was kept running in the HBS buffer (GE Healthcare) comprising 10 mM HEPES, pH 8.0, 150 mM NaCl. Of all, 5 µg/ml recombinant GST, GST-HRAS^G12V-GTPγS or GST-HRAS^G12V-GDP proteins were injected into flow cell Fc4, Fc2 and Fc3, respectively for trapping through the immobilized anti-GST antibody. The GST-HRAS^G12V-GTPγS, GST-KRAS^G12V-GppNHpp, or GST-HRAS^G12V-GDP proteins were injected at 5 µl/min for 900 s and usually reached approximately 2000–2500 RU. The GST was injected at same flow rate until about 1200–1350 RU which is 0.54 times less than the GST-HRAS^G12V-GTPγS or GST-HRAS-GDP capture amounts, taking into consideration relative molecular weights (GST, 26KDa, GST-RAS, 48KDa, respectively). Before fragment library screening, the running buffer was replaced by 20 mM Tris, pH 8, 150 mM NaCl, 5 mM MgCl2, 5% DMSO. DMSO solvent correction curves were generated by injecting the running buffers with serial concentrations of DMSO ranging from 4.5 to 6%. […] The individual compounds were injected at 30 µl for 60 s at 30 µl/min flow rate over flow cells Fc1, Fc2, Fc3 and Fc4. The captured GST and GST-RAS were removed from the chip by rinsing with 40 µl 10 mM glycine-HCl, pH 2.1 at 20 µl/min flow rate after every 48 compounds sequential injection. The chip was regenerated by injecting new GST and GST-RAS proteins as described above.
# [12] = Solubility; assay type: physicochemical
# T4 sequence (P28482 whole entry): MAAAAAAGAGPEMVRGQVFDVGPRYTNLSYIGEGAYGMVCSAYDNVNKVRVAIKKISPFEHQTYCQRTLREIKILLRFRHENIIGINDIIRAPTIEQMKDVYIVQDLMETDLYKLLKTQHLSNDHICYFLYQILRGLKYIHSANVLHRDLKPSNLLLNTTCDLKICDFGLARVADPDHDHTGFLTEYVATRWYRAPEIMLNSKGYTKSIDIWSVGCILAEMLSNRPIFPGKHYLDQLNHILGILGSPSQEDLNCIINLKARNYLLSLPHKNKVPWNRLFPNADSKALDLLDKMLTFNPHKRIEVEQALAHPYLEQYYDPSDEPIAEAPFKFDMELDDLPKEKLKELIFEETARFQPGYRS
# T8 sequence (P31749 whole entry): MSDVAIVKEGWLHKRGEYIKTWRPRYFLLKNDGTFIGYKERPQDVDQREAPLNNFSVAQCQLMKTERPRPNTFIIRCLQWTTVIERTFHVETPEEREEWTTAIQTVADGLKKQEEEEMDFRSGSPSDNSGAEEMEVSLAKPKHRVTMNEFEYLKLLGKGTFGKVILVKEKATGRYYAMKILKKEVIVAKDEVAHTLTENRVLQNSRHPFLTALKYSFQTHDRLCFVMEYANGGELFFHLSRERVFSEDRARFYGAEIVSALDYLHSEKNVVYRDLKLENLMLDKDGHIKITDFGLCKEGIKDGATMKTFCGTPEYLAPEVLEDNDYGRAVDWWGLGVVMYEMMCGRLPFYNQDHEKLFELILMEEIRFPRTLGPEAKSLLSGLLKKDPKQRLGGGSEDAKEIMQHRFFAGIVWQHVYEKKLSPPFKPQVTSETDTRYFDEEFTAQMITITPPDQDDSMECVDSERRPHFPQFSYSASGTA
# T5 sequence (P27361 whole entry): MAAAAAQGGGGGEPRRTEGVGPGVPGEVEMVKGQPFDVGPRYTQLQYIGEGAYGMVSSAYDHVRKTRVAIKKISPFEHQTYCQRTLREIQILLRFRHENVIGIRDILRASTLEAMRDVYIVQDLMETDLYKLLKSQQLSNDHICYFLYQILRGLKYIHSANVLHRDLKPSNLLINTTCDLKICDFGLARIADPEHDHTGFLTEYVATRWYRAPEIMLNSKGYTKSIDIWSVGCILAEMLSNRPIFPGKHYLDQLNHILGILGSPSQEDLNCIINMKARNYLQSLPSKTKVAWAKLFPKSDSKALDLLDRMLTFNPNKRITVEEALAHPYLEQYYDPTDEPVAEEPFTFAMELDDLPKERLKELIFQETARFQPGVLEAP
# T9 sequence (O15530 whole entry): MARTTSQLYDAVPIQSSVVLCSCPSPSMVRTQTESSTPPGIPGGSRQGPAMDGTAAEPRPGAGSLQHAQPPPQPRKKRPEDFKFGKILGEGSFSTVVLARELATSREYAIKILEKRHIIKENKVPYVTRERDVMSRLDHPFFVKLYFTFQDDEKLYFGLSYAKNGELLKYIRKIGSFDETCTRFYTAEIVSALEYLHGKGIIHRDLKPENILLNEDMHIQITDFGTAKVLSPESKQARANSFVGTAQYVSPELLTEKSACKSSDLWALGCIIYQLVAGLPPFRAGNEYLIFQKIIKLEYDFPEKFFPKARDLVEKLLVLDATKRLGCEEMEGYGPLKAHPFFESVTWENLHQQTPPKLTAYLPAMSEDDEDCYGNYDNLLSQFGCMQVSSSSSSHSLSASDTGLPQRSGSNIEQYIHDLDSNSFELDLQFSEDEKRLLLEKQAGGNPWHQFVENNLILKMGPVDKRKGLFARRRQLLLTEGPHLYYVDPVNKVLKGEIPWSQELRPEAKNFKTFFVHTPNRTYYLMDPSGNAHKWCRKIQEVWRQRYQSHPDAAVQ
# T3 sequence (P04049 whole entry): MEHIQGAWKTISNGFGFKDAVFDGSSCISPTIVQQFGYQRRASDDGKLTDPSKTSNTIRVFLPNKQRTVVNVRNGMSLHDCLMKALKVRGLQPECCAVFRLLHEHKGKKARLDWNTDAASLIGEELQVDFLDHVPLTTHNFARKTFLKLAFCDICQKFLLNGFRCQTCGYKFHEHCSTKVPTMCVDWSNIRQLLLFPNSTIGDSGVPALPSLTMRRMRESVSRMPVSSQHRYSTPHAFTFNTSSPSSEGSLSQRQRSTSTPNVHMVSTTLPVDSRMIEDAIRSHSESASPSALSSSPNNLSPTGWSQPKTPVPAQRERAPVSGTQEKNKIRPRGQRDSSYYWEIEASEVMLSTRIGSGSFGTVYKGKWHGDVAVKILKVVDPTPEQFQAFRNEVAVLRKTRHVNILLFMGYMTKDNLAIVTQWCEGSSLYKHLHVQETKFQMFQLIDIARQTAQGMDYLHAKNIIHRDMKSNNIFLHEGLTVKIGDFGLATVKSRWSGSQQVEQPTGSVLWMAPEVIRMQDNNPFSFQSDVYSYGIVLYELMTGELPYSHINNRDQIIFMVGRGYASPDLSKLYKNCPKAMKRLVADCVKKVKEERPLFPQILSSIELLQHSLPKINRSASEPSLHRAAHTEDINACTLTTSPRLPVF
# T2 sequence (P15056 whole entry): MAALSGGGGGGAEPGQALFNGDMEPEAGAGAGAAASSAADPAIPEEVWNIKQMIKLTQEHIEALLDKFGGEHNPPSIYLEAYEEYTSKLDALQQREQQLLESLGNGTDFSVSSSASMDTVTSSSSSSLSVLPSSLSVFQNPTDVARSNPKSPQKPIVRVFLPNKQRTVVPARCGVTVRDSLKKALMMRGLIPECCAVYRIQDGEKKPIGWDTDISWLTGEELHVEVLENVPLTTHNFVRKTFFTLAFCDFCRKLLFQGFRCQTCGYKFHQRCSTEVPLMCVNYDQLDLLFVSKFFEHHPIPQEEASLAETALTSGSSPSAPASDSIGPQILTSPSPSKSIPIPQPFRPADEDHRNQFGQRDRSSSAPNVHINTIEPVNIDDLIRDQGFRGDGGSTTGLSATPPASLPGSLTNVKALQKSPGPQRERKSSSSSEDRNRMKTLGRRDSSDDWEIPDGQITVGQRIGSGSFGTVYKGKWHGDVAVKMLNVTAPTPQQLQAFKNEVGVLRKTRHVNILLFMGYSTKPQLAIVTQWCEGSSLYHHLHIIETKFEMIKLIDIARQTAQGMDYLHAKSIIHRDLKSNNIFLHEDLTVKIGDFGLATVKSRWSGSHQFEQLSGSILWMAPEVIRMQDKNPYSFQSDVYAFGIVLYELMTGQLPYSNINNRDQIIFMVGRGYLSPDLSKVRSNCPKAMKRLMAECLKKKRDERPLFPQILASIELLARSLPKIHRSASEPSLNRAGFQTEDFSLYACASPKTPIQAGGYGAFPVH
# T1 sequence (P36507 whole entry): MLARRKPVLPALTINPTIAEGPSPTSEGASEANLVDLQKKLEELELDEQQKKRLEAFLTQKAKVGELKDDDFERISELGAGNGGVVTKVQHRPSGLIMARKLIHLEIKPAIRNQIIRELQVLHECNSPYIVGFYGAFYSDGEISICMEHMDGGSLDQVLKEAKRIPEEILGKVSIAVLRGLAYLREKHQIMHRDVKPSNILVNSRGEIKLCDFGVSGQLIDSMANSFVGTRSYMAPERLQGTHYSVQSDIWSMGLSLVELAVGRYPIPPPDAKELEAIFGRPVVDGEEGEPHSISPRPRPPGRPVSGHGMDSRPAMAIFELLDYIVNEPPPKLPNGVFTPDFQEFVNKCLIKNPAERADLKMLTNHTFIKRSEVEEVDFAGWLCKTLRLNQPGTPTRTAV
# T6 sequence (P31751 whole entry): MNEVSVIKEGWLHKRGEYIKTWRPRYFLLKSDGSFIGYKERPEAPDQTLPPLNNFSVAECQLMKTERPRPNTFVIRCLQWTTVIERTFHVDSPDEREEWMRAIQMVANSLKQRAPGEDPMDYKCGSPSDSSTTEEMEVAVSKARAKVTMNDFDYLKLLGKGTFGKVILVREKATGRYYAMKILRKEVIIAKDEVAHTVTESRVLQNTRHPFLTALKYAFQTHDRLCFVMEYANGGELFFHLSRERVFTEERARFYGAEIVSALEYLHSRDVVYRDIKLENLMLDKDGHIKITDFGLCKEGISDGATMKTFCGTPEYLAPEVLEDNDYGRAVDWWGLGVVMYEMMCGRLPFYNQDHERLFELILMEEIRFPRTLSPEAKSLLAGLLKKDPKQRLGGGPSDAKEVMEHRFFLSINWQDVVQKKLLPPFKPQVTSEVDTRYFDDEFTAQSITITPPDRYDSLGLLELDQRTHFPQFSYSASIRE
# T10 sequence (P01116 1-188 isoform P01116-2 G12V): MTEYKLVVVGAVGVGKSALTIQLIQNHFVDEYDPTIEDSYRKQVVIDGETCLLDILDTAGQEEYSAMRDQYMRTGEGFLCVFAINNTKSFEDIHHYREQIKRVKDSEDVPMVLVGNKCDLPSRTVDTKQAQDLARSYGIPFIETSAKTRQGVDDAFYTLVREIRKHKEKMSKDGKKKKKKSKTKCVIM
smiles,measurement,setting,value
COc1nc(-c2cccc3c2OCCO3)ccc1Nc1ccc(CN(C)C)cc1 [Abd-7],% kinase activity in the presence of Abd-7,[1],108%
same,% kinase activity in the presence of Abd-7,[2],101%
same,% kinase activity in the presence of Abd-7,[3],104%
same,% kinase activity in the presence of Abd-7,[4],101%
same,% kinase activity in the presence of Abd-7,[5],111%
same,% kinase activity in the presence of Abd-7,[6],126%
same,% kinase activity in the presence of Abd-7,[7],93%
same,% kinase activity in the presence of Abd-7,[8],89%
same,% kinase activity in the presence of Abd-7,[9],91%
same,% kinase activity in the presence of Abd-7,[10],107%
O=C(NCC1COc2ccccc2O1)c1ccco1 (stereo not drawn) [Abd-2],binding to KRAS^G12V-GppNHp (SPR),[11],binds
same,solubility,[12],446 µM
